Measured values published in ChEMBL document CHEMBL1141914.

Target: T1, Prostaglandin G/H synthase 1 (Ovis aries) (UniProt P05979)
T1 sequence (whole entry): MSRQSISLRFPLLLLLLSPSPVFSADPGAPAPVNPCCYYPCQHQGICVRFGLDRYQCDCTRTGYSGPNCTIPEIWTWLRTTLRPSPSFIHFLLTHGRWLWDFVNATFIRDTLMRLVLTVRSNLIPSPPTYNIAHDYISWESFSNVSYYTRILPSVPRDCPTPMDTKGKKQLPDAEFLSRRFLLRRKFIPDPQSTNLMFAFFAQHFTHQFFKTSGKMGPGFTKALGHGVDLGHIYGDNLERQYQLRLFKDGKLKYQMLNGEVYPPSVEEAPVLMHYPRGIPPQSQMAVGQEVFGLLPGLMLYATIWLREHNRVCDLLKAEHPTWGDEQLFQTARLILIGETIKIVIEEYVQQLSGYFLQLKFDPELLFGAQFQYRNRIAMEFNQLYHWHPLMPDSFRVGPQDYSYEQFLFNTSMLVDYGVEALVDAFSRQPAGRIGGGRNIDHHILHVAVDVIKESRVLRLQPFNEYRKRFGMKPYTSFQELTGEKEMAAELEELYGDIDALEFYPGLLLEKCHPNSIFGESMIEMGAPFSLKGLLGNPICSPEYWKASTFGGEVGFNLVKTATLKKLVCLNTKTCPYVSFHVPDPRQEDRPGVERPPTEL
Test: Percent inhibition against Prostaglandin G/H synthase 1 from ram seminal vesicles at 100 uM

SMILES: COc1cc(/C=C/C(O)=C/C(=O)/C=C/c2ccc(O)cc2)ccc1O
- inhibition: 67.8%

SMILES: COc1cc(/C=C/c2cc(/C=C/c3ccc(O)c(OC)c3)on2)ccc1O
- inhibition: 80.8%

SMILES: COc1cc(/C=C/c2cc(/C=C/c3ccc(O)c(OC)c3)[nH]n2)ccc1O
- inhibition: 87%

SMILES: COc1cc(/C=C/c2cc(/C=C/c3ccc(O)cc3)on2)ccc1O
- inhibition: 47.4%

SMILES: COc1cc(/C=C/c2cc(/C=C/c3ccc(O)cc3)[nH]n2)ccc1O
- inhibition: 73.9%

SMILES: Oc1ccc(/C=C/c2cc(/C=C/c3ccc(O)cc3)[nH]n2)cc1
- inhibition: 44.4%

SMILES: COc1cc(/C=C/C(=O)CC(=O)/C=C/c2ccc(O)c(OC)c2)ccc1O
- inhibition: 80.5%

SMILES: O=C(/C=C/c1ccc(O)cc1)CC(=O)/C=C/c1ccc(O)cc1
- inhibition: 41.7%
